Converted amounts (≈) assume the structure as drawn.
What was measured:
Format in all cases: functional
[1] = system: Mycobacterium tuberculosis; test: Antimycobacterial activity against Mycobacterium tuberculosis H37Rv expressing GFP after 7 days; details: 168 h
[2] = system: Mycobacterium tuberculosis; test: Antimycobacterial activity against Mycobacterium tuberculosis H37Rv by broth microdilution method
[3] = system: Mycobacterium tuberculosis; test: Antimycobacterial activity against Mycobacterium tuberculosis MDR_CHUV by resazurin reduction microplate assay

Molecule `COc1ccc(OCCNC(=O)c2cc([N+](=O)[O-])cc([N+](=O)[O-])c2)cc1` has an MIC [1] of 0.2 µM (≈ 0.0723 µg/mL).

`C[C@H]1COC2(CCN(c3nc(=O)c4cc(C(F)(F)F)cc([N+](=O)[O-])c4s3)CC2)O1` [BTZ-043] was tested, and the MIC [2] was 0.001 µM (≈ 0.000431 µg/mL).

For `O=c1nc(N2CCN(CC3CCCCC3)CC2)sc2c([N+](=O)[O-])cc(C(F)(F)F)cc12` [MACOZINONE], the MIC [3] was 0.0004 µM (≈ 0.000183 µg/mL).

`Cn1nc([N+](=O)[O-])nc1Oc1ccc(C(C)(C)C)cc1` showed an MIC [1] of 0.5 µM (≈ 0.138 µg/mL).

— ChEMBL document CHEMBL4002566, “S-substituted 3,5-dinitrophenyl 1,3,4-oxadiazole-2-thiols and tetrazole-5-thiols as highly efficient antitubercular agents” (Eur J Med Chem, 2017)
